Assay results from ChEMBL document CHEMBL1201862, “PubChem BioAssay data set” (2004).
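Step 1: Grow cells in 96-well plates. Step 2: Expose to compound for 48 hours at 5 concentrations. Step 3: Interpolate endpoints linearly; if unreached, use highest concentration. GI50 = concentration required for 50% inhibition of growth.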 Activity calls are given as the source filed them. Cut-off read from the data, not from the text of the source: active = GI50 up to about 1.1 µM and inactive = higher.

How the values were obtained:
Experiment in all cases: DTP human tumour cell line panel, 48 h
[1] = system: 786-0
[2] = system: ACHN
[3] = system: HCT-15
[4] = system: HL-60
[5] = system: HOP-62
[6] = system: IGROV-1
[7] = system: K562
[8] = system: MCF7
[9] = system: MDA-MB-435
[10] = system: MDA-N
[11] = system: Malme-3M
[12] = system: NCI-H23
[13] = system: NCI-H522
[14] = system: NCI/ADR-RES
[15] = system: OVCAR-4
[16] = system: SF-295
[17] = system: SK-OV-3
[18] = system: TK-10
[19] = system: LXFL 529

COC1=CC(=O)c2c(c(COP(=O)(N(C)CCBr)N(C)CCBr)cn2C)C1=O
GI50 [1]: < 0.0103 µM (active) | GI50 [2]: < 0.01 µM (active) | GI50 [3]: < 0.0234 µM | GI50 [4]: < 0.01 µM (active) | GI50 [5]: < 0.0203 µM (active) | GI50 [6]: 1.17 µM (inactive) | GI50 [7]: 0.0398 µM (active) | GI50 [8]: < 0.01 µM (active) | GI50 [9]: 0.0588 µM (active) | GI50 [10]: 0.109 µM (active) | GI50 [11]: 0.0811 µM (active) | GI50 [12]: < 0.0326 µM (active) | GI50 [13]: 0.138 µM (active) | GI50 [14]: 0.134 µM (active) | GI50 [15]: 1.33 µM (inactive) | GI50 [16]: < 0.01 µM (active) | GI50 [17]: 0.121 µM (active) | GI50 [18]: 0.17 µM (active)

Oc1ccc(Cl)cc1Cc1cc(Cl)cc(Cc2cc(Cl)ccc2O)c1O
GI50 [1]: 2.81 µM (inactive) | GI50 [2]: 2.29 µM (inactive) | GI50 [3]: 2.54 µM | GI50 [4]: 2.3 µM (inactive) | GI50 [5]: 2.5 µM (inactive) | GI50 [6]: 3.2 µM (inactive) | GI50 [7]: 1.63 µM (inactive) | GI50 [8]: 2.21 µM (inactive) | GI50 [9]: 2.82 µM (inactive) | GI50 [10]: 2.66 µM (inactive) | GI50 [11]: 1.95 µM (inactive) | GI50 [12]: 2.01 µM (inactive) | GI50 [13]: 0.766 µM (active) | GI50 [14]: 2.04 µM (inactive) | GI50 [15]: 2.83 µM (inactive) | GI50 [16]: 2.29 µM (inactive) | GI50 [17]: 2.43 µM (inactive) | GI50 [18]: 2.72 µM (inactive)

CSC(SC)=C(C(=O)c1ccc(Cl)cc1)n1c(=O)sc2cc(Br)ccc21
GI50 [1]: > 100 µM (inactive) | GI50 [2]: > 100 µM (inactive) | GI50 [3]: > 100 µM | GI50 [4]: > 100 µM (inactive) | GI50 [5]: > 100 µM (inactive) | GI50 [6]: > 100 µM (inactive) | GI50 [7]: 36.5 µM (inactive) | GI50 [8]: > 100 µM (inactive) | GI50 [9]: > 100 µM (inactive) | GI50 [10]: > 100 µM (inactive) | GI50 [11]: > 100 µM (inactive) | GI50 [12]: > 100 µM (inactive) | GI50 [13]: > 100 µM (inactive) | GI50 [14]: > 100 µM (inactive) | GI50 [15]: 50.8 µM (inactive) | GI50 [16]: > 100 µM (inactive) | GI50 [17]: > 100 µM (inactive) | GI50 [18]: > 100 µM (inactive)

O=[N+]([O-])c1ccc(CSc2c3ccccc3nc3ccccc23)cc1
GI50 [1]: 1.93 µM (inactive) | GI50 [2]: 3.37 µM (inactive) | GI50 [3]: 3.91 µM | GI50 [4]: 2.52 µM (inactive) | GI50 [5]: 18.3 µM (inactive) | GI50 [6]: 2.82 µM (inactive) | GI50 [7]: 5.01 µM (inactive) | GI50 [8]: 2.51 µM (inactive) | GI50 [9]: 4.94 µM (inactive) | GI50 [10]: 9.86 µM (inactive) | GI50 [11]: 2.34 µM (inactive) | GI50 [12]: 7.05 µM (inactive) | GI50 [13]: 1.9 µM (inactive) | GI50 [14]: 18 µM (inactive) | GI50 [15]: 15.6 µM (inactive) | GI50 [16]: 21.1 µM (inactive) | GI50 [17]: 22 µM (inactive) | GI50 [18]: 6.62 µM (inactive)

CC(=O)C(CN(Cc1ccccc1)Cc1ccccc1)C(c1ccccc1)c1c(O)c2ccccc2oc1=O (stereo unspecified)
GI50 [1]: > 100 µM (inactive) | GI50 [2]: > 100 µM (inactive) | GI50 [3]: > 100 µM | GI50 [4]: > 100 µM (inactive) | GI50 [5]: > 100 µM (inactive) | GI50 [6]: > 100 µM (inactive) | GI50 [7]: > 100 µM (inactive) | GI50 [19]: > 100 µM (inactive) | GI50 [11]: > 100 µM (inactive) | GI50 [12]: > 100 µM (inactive) | GI50 [13]: > 100 µM (inactive) | GI50 [15]: > 100 µM (inactive) | GI50 [16]: > 100 µM (inactive) | GI50 [17]: > 100 µM (inactive) | GI50 [18]: > 100 µM (inactive)

CCOC(=O)/C(=C\c1c[nH]c2ccccc12)P(=O)(OCC)OCC
GI50 [1]: 31.3 µM (inactive) | GI50 [2]: 41.4 µM (inactive) | GI50 [3]: 27.7 µM | GI50 [4]: 37.5 µM (inactive) | GI50 [5]: 42.6 µM (inactive) | GI50 [6]: 39 µM (inactive) | GI50 [7]: 50.9 µM (inactive) | GI50 [8]: 50.8 µM (inactive) | GI50 [9]: 40.9 µM (inactive) | GI50 [10]: 35.8 µM (inactive) | GI50 [11]: 18.9 µM (inactive) | GI50 [12]: 29.6 µM (inactive) | GI50 [13]: 26.8 µM (inactive) | GI50 [14]: 25.3 µM (inactive) | GI50 [15]: 23.9 µM (inactive) | GI50 [16]: 39.9 µM (inactive) | GI50 [17]: 30.5 µM (inactive) | GI50 [18]: 42.6 µM (inactive)

CNC1=C(C)C(=O)C(O)=C([C@H](C)CCC=C(C)C)C1=O
GI50 [1]: 24.9 µM (inactive) | GI50 [2]: 11.2 µM (inactive) | GI50 [3]: 6.92 µM | GI50 [4]: 2.4 µM (inactive) | GI50 [5]: 12.8 µM (inactive) | GI50 [6]: 3.91 µM (inactive) | GI50 [7]: 29 µM (inactive) | GI50 [8]: 37.2 µM (inactive) | GI50 [9]: 29.6 µM (inactive) | GI50 [10]: 29.6 µM (inactive) | GI50 [11]: 16 µM (inactive) | GI50 [12]: 20 µM (inactive) | GI50 [13]: 3.77 µM (inactive) | GI50 [14]: 5.21 µM (inactive) | GI50 [15]: 11.7 µM (inactive) | GI50 [16]: 11.4 µM (inactive) | GI50 [17]: 23.9 µM (inactive) | GI50 [18]: 31 µM (inactive)

C=C(Br)CNCC(=C)Br
GI50 [1]: > 100 µM (inactive) | GI50 [2]: > 100 µM (inactive) | GI50 [3]: > 100 µM | GI50 [4]: 26.7 µM (inactive) | GI50 [5]: > 100 µM (inactive) | GI50 [6]: > 100 µM (inactive) | GI50 [7]: 38 µM (inactive) | GI50 [8]: > 100 µM (inactive) | GI50 [9]: > 100 µM (inactive) | GI50 [10]: > 100 µM (inactive) | GI50 [11]: 93.1 µM (inactive) | GI50 [12]: > 100 µM (inactive) | GI50 [13]: > 100 µM (inactive) | GI50 [14]: > 100 µM (inactive) | GI50 [15]: > 100 µM (inactive) | GI50 [16]: > 100 µM (inactive) | GI50 [17]: > 100 µM (inactive) | GI50 [18]: > 100 µM (inactive)
